Reference: patent publication US20230312524A1, “ALPHA1A-ADRENERGIC RECEPTOR AGONISTS AND METHODS OF USE” (CuraSen Therapeutics, Inc., priority 2020, published 2023)
Structures can show the parent of a compound that is named as a salt. Where two headings read alike, the source gives them in different places.

Tests used:
α1A-adrenergic receptor [1] = biological target: T1, α1A-adrenergic receptor (Homo sapiens, UniProt P35348); details: as compared to noradrenaline; FLIPR assay; Blue et al., Table 1; cited from earlier work
T1 sequence (P35348 1-466): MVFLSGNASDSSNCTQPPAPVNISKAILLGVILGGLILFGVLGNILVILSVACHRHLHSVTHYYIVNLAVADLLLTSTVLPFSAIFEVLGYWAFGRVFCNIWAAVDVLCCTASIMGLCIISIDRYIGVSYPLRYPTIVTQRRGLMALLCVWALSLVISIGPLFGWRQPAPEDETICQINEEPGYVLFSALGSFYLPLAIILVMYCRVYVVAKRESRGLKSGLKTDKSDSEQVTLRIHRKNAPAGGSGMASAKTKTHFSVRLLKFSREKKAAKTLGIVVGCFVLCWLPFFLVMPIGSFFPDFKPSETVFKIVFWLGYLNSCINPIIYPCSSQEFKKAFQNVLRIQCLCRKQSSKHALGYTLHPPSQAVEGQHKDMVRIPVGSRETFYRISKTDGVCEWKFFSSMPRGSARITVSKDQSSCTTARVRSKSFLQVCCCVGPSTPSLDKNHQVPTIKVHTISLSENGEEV

α1A-adrenergic receptor [2] = biological target: T1, α1A-adrenergic receptor; details: as compared to noradrenaline; InsPs accumulation assay; Blue et al., Table 1; cited from earlier work
α1A-ARS = biological target: T2, α1A-ARS (Homo sapiens, UniProt P35348); experiment: Calcium flux assay (Calcium 6 dye) in cells expressing an α1-AR; assay type: cell-based; details: for Emax: read-out: Average Emax
T2 sequence (P35348 1-466): T1 sequence (P35348 1-466)
Source text: Calcium flux experimental design: alpha-1 adrenergic receptors (α1-ARs) couple to Gq proteins, which results in downstream activation of phospholipase C and release of calcium from intracellular stores. Intracellular calcium increase upon α1-AR activation can be detected by Calcium 6 dye.
Cell preparation: cells expressing an α1-AR were washed in warmed phosphate-buffered saline to remove medium and harvested using versene (Caisson Labs, catalog #EDL01).
Media was removed from cells by tapping plates upside-down on absorbent wipes, followed by 15 second upside-down 50×g centrifugation, again on absorbent wipes. 12 μL cell dye solution was added to cells using a reagent dispenser (Integra viaFILL) and cells were incubated for 90 minutes at 37° C., 5% CO2.
Compound preparation: candidate alpha-adrenergic compounds, dissolved to 10 mM in DMSO, were diluted in_assay buffer (HBSS/H-EPES containing 2 mM CaCl2 and 2 mM probenecid sodium salt). […] On all assay plates, vehicle (DMSO) and positive control (10 μM epinephrine) conditions were included on the plate, as well as a dose-response curve of epinephrine. […] 384 well compound plates were centrifuged briefly at 250×g, sealed (Axygen PCR-SP) and incubated at 37° C. until the 90 minute cell dye incubation was complete.
Calcium 6 stained cells and 384 well compound plates were loaded onto the Flexstation and incubated on the machine for 5 minutes before initiating the assay.
For each assay well, baseline Calcium 6 fluorescence was detected for 18 seconds prior to 12 μL compound addition at 12 μL per second. Changes in Calcium 6 fluorescence were detected for a further 22 seconds, for a total read time of 40 seconds. All detection was performed with medium gain sensitivity, bottom read, with 6 flashes per read.
Data analysis: for calcium flux, analysis of maximum change from baseline over the 40-second read time was determined using Softmax Pro and data was exported as raw text files. Potency estimates (EC50) were derived from dose response curves (maximum change from baseline versus the log concentration of test compound) fit by four-parameter nonlinear regression using Graphpad Prism. Efficacy was determined by comparing the magnitude of the test compound signal window (fitted curve max−min) with the signal window of the full agonist control, epinephrine. […] All experiments were repeated a minimum of three times, with the average (mean) potency and maximum effect relative to the within-plate full agonist dose-response comparator reported.

[3] = calcium flux, α1A-AR, maximum effect relative to full agonist epinephrine
[4] = calcium flux, α1A-AR, mean of at least three experiments, read-out: Average PEC50

SMILES | Emax (α1A-ARS; [3]) | EC50 (α1A-ARS; [4]) | Emax (α1A-ARS) | also measured
Cc1c(OCC2=NCCN2)ccc(Cl)c1NS(C)(=O)=O [RO 115-1240 (dabuzalgron) HCl salt, dabuzalgron] |  |  |  | intrinsic activity (α1A-adrenergic receptor [1]): 0.51; intrinsic activity (α1A-adrenergic receptor [2]): 0.27
CN(CC(F)(F)F)c1cc(C(F)(F)F)ccc1CC1=NCCN1 [Compound 97] | < 20% | > 1000 nM |  | 
Clc1cn(-c2cn[nH]c2)c2cc(CC3=NCCN3)ccc12 [Compound 62] | < 20% | > 1000 nM |  | 
Cc1oc2c(CC3=NCCN3)cccc2c1C [Compound 45] |  | 10 to 977 nM | > 61% | 
Clc1ccc(CC2=NCCN2)c(C2CCOCC2)c1 [Compound 118] | < 20% | > 1000 nM |  | 
Cc1coc(-c2cc(Cl)ccc2CC2=NCCN2)n1 [Compound 94] | 21 to 60% | 10 to 977 nM |  | 
Cc1c(CC2=NCCN2)cc(Cl)c2c1cnn2C [Compound 105] |  | 10 to 977 nM | 21 to 60% | 
Cc1cc(-c2cc(Cl)ccc2CC2=NCCN2)sn1 [Compound 37] | 21 to 60% | 10 to 977 nM |  | 
CCc1cc(S(=O)(=O)C(F)(F)F)ccc1CC1=NCCN1 [Compound 111] | > 61% | 10 to 977 nM |  | 
FC(F)(F)c1ccc(CC2=NCCN2)c(N2CCCCC2)c1 [Compound 69] | 21 to 60% | 10 to 977 nM |  | 
Fc1ccc(CC2=NCCN2)c(N2CCOCC2)c1 [Compound 72] | < 20% | > 1000 nM |  | 
CC(C)C(F)(F)c1cc(Cl)ccc1CC1=NCCN1 [Compound 117] |  | 10 to 977 nM | 21 to 60% | 
Cc1c(CC2=NCCN2)cc(Cl)c2[nH]ncc12 [Compound 108] |  | 10 to 977 nM | > 61% | 
Clc1ccc(CC2=NCCN2)c(N2CCCC2)c1 [Compound 122] | > 61% | 10 to 977 nM |  | 
Cc1c(CC2=NCCN2)ccc(S(=O)(=O)C(F)F)c1Cl [Compound 149] | 21 to 60% | > 1000 nM |  | 
CCc1cc(F)ccc1CC1=NCCN1 [Compound 71] |  | 10 to 977 nM | 21 to 60% | 
Clc1ccc(CC2=NCCN2)c(-c2ccccn2)c1 [Compound 18] | > 61% | 10 to 977 nM |  | 
Cc1c(CC2=NCCN2)ccc(Cl)c1-c1ncco1 [Compound 14] | 21 to 60% | 10 to 977 nM |  | 
C[C@@H](F)c1cc(Cl)ccc1CC1=NCCN1 [Compound 142] |  | 10 to 977 nM | 21 to 60% | 
Clc1ccc(CC2=NCCN2)c(-c2nccs2)c1 [Compound 25] | > 61% | < 9.77 nM |  | 

SMILES | Emax (α1A-ARS; [3]) | EC50 (α1A-ARS; [4]) | Emax (α1A-ARS) | also measured
CC(F)(F)c1ccc(CC2=NCCN2)c(Cl)c1 [Compound 157] |  | 10 to 977 nM | > 61% | 
Clc1ccc(CC2=NCCN2)c(-c2ncccn2)c1 [Compound 32] | > 61% | 10 to 977 nM |  | 
Clc1cc(CC2=NCCN2)ccc1-c1ncco1 [Compound 3] | < 20% | > 1000 nM |  | 
c1cc2c(cc1CC1=NCCN1)NCC21CC1 [Compound 46] | 21 to 60% | 10 to 977 nM |  | 
Clc1ccc(CC2=NCCN2)c(-c2cnccn2)c1 [Compound 27] | 21 to 60% | 10 to 977 nM |  | 
Cn1nccc1-c1ccc(CC2=NCCN2)cc1Cl [Compound 1] | < 20% | > 1000 nM |  | 
Cc1cc(Cl)ccc1CC1=NCCN1 [Compound 38] |  | 10 to 977 nM | 21 to 60% | 
Cc1c(OCC2=NCCN2)ccc(Cl)c1NS(C)(=O)=O [RO 115-1240 (dabuzalgron) free base, dabuzalgron] |  |  |  | intrinsic activity (α1A-adrenergic receptor [2]): 0.31
Cc1ccc(C(F)(F)F)cc1CC1=NCCN1 [Compound 127] |  | 10 to 977 nM | > 61% | 
Clc1ccc(CC2=NCCN2)c(CC2CCOCC2)c1 [Compound 119] | < 20% | > 1000 nM |  | 
Clc1c(CC2=NCCN2)ccc2occc12 [Compound 52] |  | 10 to 977 nM | < 20% | 
Clc1ccc(CC2=NCCN2)c(-c2cccnn2)c1 [Compound 33] | < 20% | > 1000 nM |  | 
Clc1ccc(CC2=NCCN2)c(-c2ncco2)c1 [Compound 13] | > 61% | 10 to 977 nM |  | 
FC(F)(F)Oc1cc(Cl)ccc1CC1=NCCN1 [Compound 85] |  | 10 to 977 nM | 21 to 60% | 
FC(F)(F)c1ccc(CC2=NCCN2)c(-n2cccn2)c1 [Compound 93] | > 61% | 10 to 977 nM |  | 
Cc1c(CC2=NCCN2)cccc1-c1cn[nH]c1 [Compound 6] | 21 to 60% | 10 to 977 nM |  | 
Cc1c(CC2=NCCN2)cccc1-c1cc[nH]n1 [Compound 20] | 21 to 60% | 10 to 977 nM |  | 
c1cc(CC2=NCCN2)c2[nH]ncc2c1 [Compound 51] |  | > 1000 nM | 21 to 60% | 
Cc1c(CC2=NCCN2)cc(Cl)c2[nH]ccc12 [Compound 100] |  | < 9.77 nM | > 61% | 
Cn1nccc1-c1cc(CC2=NCCN2)ccc1Cl [Compound 11] | < 20% | > 1000 nM |  | 

SMILES | Emax (α1A-ARS; [3]) | EC50 (α1A-ARS; [4]) | Emax (α1A-ARS) | also measured
FC(F)Oc1ccc(CC2=NCCN2)c(Cl)c1 [Compound 136] |  | 10 to 977 nM | 21 to 60% | 
FC(F)c1cc(Cl)ccc1CC1=NCCN1 [Compound 82] |  | 10 to 977 nM | 21 to 60% | 
Cc1c(CC2=NCCN2)ccc2occc12 [Compound 54] |  | 10 to 977 nM | 21 to 60% | 
FC(F)(F)c1cc(Cl)ccc1CC1=NCCN1 [Compound 39] |  | 10 to 977 nM | > 61% | 
Fc1ccc(CC2=NCCN2)c(-c2ccccc2)c1 [Compound 79] | > 61% | < 9.77 nM |  | 
Cc1ccccc1CC1=NCCN1 [Compound 155] |  | 10 to 977 nM | 21 to 60% | 
FC(F)(F)c1cccc(Cl)c1CC1=NCCN1 [Compound 134] |  | 10 to 977 nM | > 61% | 
COc1ccccc1CC1=NCCN1 [Compound 156] |  | 10 to 977 nM | 21 to 60% | 
Clc1ccc(CC2=NCCN2)c(C2CC2)c1 [Compound 65] |  | 10 to 977 nM | > 61% | 
Cc1c(CC2=NCCN2)cc(Cl)c2occc12 [Compound 56] |  | 10 to 977 nM | 21 to 60% | 
Clc1ccc(CC2=NCCN2)c(-n2cccc2)c1 [Compound 91] | > 61% | 10 to 977 nM |  | 
Cc1cccc(Cl)c1CC1=NCCN1 [Compound 87] |  |  | 21 to 60% | EC50 (α1A-ARS): 10 to 977 nM
FC(F)(F)Oc1cccc(CC2=NCCN2)c1Cl [Compound 166] |  | 10 to 977 nM | 21 to 60% | 
C[C@H](F)c1cc(Cl)ccc1CC1=NCCN1 [Compound 147] |  | 10 to 977 nM | 21 to 60% | 
Cc1cc2c(C)c(CC3=NCCN3)cc(Cl)c2o1 [Compound 98] |  | 10 to 977 nM | 21 to 60% | 
FC(F)(F)c1ccccc1CC1=NCCN1 [Compound 154] |  | > 1000 nM | 21 to 60% | 
COCc1cc(Cl)ccc1CC1=NCCN1 [Compound 124] | 21 to 60% | 10 to 977 nM |  | 
Cc1cccn1-c1c(Cl)cccc1CC1=NCCN1 [Compound 115] | 21 to 60% | > 1000 nM |  | 
